Laboratory results taken from patent US11661404B2, “Prodrug compounds activated by AKR1C3 and their use for treating hyperproliferative disorders” (priority 2018, dated 2023).
pIC50: −log10 of the molar value. Like-named read-outs stand apart in the source and are kept apart here.

Tests used:
[1] = tested on: wild-type SNU398 hepatocellular carcinoma cells; assay: Anti-proliferative IC50 assay, wild-type SNU398; format: cell-based; conditions: Homo sapiens
Description: (§1) Four hundred cells were seeded in a volume of 100 μL in each well of a 96-well plate. The cells were left in a humidified incubator (37° C., 5% CO2) for 2 hours in order to enable attachment to the surface of the wells prior to compound addition. All compounds were prepared as stocks in DMSO and stored at −80° C. Frozen stocks of compounds were thawed immediately prior to addition to cells. Working solutions of each compound were made in α-MEM+5% FBS (v/v) at 3 times the required final concentration for the top well. The final concentration of DMSO in the α-MEM solution was ensured to not exceed 1% of the total volume. 50 μL of the working solution was added to the top wells (in duplicates) and gently mixed. The solubility of some compounds precluded the working solution in α-MEM to be 3 times the desired top well concentration. […] A 3-fold serial dilution was carried out along the plate starting from the top well. The first column of wells on the plate served as blanks (containing α-MEM+FBS) and the second column served as control wells (containing cells with no compound added). Following compound addition, the plates were incubated for 4 hours in a humidified incubator (37° C., 5% CO2).
(§2) Following the 4 hour compound exposure, the 96-well plates were washed three times by aspirating media with an Immuno Washer (Nunc) and each well replaced with 150 μL of α-MEM+5% (v/v) FBS+1% (v/v) P/S. The plates were left in a humidified incubator (37° C., 5% CO2) for 5 days to enable cell growth. The cells in 96-well plates were fixed 5 days after compound exposure by adding 50 μL of a 40% (w/v) trichloroacetic acid (TCA) solution so as to obtain a final TCA concentration of 10% in each well. The plates were left in the refrigerator (4° C.) for 1 hour and subsequently rinsed 3 times in tap water. Any excess water was left to drain and the cells were stained with 50 μL of 0.4% (w/v) sulforhodamine B (SRB). The plates with the SRB stain were left in the dark for 30 minutes. Excess stain was removed from the wells by rinsing the plates 4 times in water containing 1% (v/v) acetic acid. The stain was solubilised by adding 100 μL of 10 mM unbuffered Tris (pH 10.5) to each well and the plates were left in a shaker in a dark environment at room temperature for at least 1 hour. The absorbance values of the wells were determined by an ELx 808 Absorbance Microplate Reader (Bio-Tek Instruments, Winooski, Vt., USA), with the wavelength of the measurement filter set at 490 nm and a reference filter set at 450 nm. The absorbance of the reference filter was subtracted from the measurement filter to obtain a final absorbance of λ490-450 nm. The absorbance data was analysed and IC50 values determined by the KC4 microplate data analysis software (KC4™ V3.4, Bio-Tek).
(§3) Anti-proliferative IC50 assays were repeated as described above including the addition of 3 μM SN34037, a selective and potent small molecule inhibitor of AKR1C3.
(§4) Materials and methods used are as described for Example 9. […] This is a surprising finding and considerably greater than the approximately 77-fold, 270-fold and 400-fold increase in sensitivity observed for PR-104A, SN33540 and SN34454, respectively. In all cases, this increase in cytotoxicity resulting from expression of AKR1C3 can be substantially reversed by addition of an AKR1C3 inhibitor (SN34037), directly implicating metabolism of the prodrugs by AKR1C3 in the observed increase in cytotoxicity. As an important control, introduction of SN34037 had no anti-proliferative effects in wild-type SNU398 cells treated with compounds of the invention.

[2] = tested on: SNU398 hepatocellular carcinoma cells engineered to over-express AKR1C3; assay: Anti-proliferative IC50 assay, SNU398 over-expressing AKR1C3; format: cell-based, human; conditions: for pIC50: Homo sapiens
Description: as §1, §2, §3, §4

[3] = SNU-398, read-out: SNU398-WT +AKR1C3 Inhibitor Anti-proliferative IC50
[4] = SNU-398, read-out: SNU398-WT Anti-proliferative IC50
[5] = SNU-398, read-out: SNU398-AKR1C3 +AKR1C3 Inhibitor Anti-proliferative IC50
[6] = SNU-398, read-out: SNU398-AKR1C3 Anti-proliferative IC50

| SMILES | pIC50 [1, 3] | pIC50 [1, 4] | pIC50 [2, 5] | pIC50 [2, 6] | increase in sensitivity when SNU398 cells express AKR1C3 ([2]; SNU398-WT vs SNU398-AKR1C3) |
| --- | --- | --- | --- | --- | --- |
| CN1CCN(S(=O)(=O)c2cc([N+](=O)[O-])ccc2N(CCOS(C)(=O)=O)CCOS(C)(=O)=O)CC1 [Compound 641, ((2-((4-methylpiperazin-1-yl)sulfonyl)-4-nitrophenyl)azanediyl)bis(ethane-2,1-diyl) dimethanesulfonate] | 4.81 | 4.99 | 5.29 | 8.40 |  |
| O=[N+]([O-])c1ccc(N(CCBr)CCBr)c(S(=O)(=O)N2CCN(CC(O)CO)CC2)c1 (stereo not shown) [Compound 566, 3-(4-((2-(bis(2-bromoethyl)amino)-5-nitrophenyl)sulfonyl)piperazin-1-yl)propane-1,2-diol] | 4.99 | 5.02 | 5.19 | 7.96 |  |
| CS(=O)(=O)OCCN(CCBr)c1c(C(=O)NCCO)cc([N+](=O)[O-])cc1[N+](=O)[O-] [PR-104A, 2-((2-bromoethyl)(2-((2-hydroxyethyl)-carbamoyl)-4,6-dinitrophenyl)amino)ethyl methanesulfonate, reference compound] | 4.03 | 4.05 | 4.05 | 5.94 |  |
| CS(=O)(=O)OCCN(CCBr)c1ccc([N+](=O)[O-])cc1S(=O)(=O)N1CCN(CC(O)CO)CC1 (stereo not shown) [Compound 605, 2-((2-bromoethyl)(2-((4-(2,3-dihydroxypropyl)piperazin-1-yl)sulfonyl)-4-nitrophenyl)amino)ethyl methanesulfonate] | 4.84 | 4.79 | 4.98 | 7.55 |  |
| CN1CCN(C(=O)c2cc([N+](=O)[O-])ccc2N(CCBr)CCOS(C)(=O)=O)CC1 [SN34454, reference compound] | 4.31 | 4.22 | 4.20 | 6.82 | ~400 fold |
| CN1CCN(S(=O)(=O)c2cc([N+](=O)[O-])ccc2N(CCBr)CCOS(C)(=O)=O)CC1 [Compound 602, 2-((2-bromoethyl)(2-((4-methylpiperazin-1-yl)sulfonyl)-4-nitrophenyl)amino)ethyl methanesulfonate] | 5.18 | 5.17 | 5.58 | 8.52 |  |
